Assay results published in ChEMBL document CHEMBL3885861, “Open TG-GATES”.

Organism: Rattus norvegicus
Assay: Open TG-GATES - Regimen: Daily Repeat
Format: toxicity, organism-based, Sprague-Dawley
Design: regimen Daily Repeat, gender Male, age 6 weeks
Conditions: in vivo, po, route gavage; for APTT / Bas / Eos / Fbg / Hb / Ht / Lym / MCH / MCHC / MCV / Mono / PT / Plat / RBC / Ret / WBC: tissue Blood; for KIDNEY_L / KIDNEY_R / KIDNEY_TOTAL: tissue Kidney; for ALP / ALT / AST / BUN / CRE / Ca / DBIL / GLC / IP / K / LDH / Na / PL / RALB / TBIL / TC / TG / TP / gamma-GTP: tissue Plasma
[1] = 0 mg/kg, 72 h, dose level Control, time 3 day
[2] = 0 mg/kg, […], dose level Control, time 7 day
[3] = 0 mg/kg, […], dose level Control, time 14 day
[4] = 0 mg/kg, […], dose level Control, time 28 day
[5] = 20 mg/kg, 72 h, dose level Low, time 3 day
[6] = 20 mg/kg, […], dose level Low, time 7 day
[7] = 20 mg/kg, […], dose level Low, time 14 day
[8] = 20 mg/kg, […], dose level Low, time 28 day
[9] = 60 mg/kg, 72 h, dose level Middle, time 3 day

SMILES: CC(C)Cc1ccc(C(C)C(=O)O)cc1 (centres undefined) [IBUPROFEN]
- TERMINAL_BW [1]: 222.9 g
- APTT [1]: 20.4 s
- Bas [1]: 0%
- Eos [1]: 1%
- Fbg [1]: 283.4 mg/dL
- Hb [1]: 13.2 g/dL
- Ht [1]: 38.4%
- Lym [1]: 79.8%
- MCH [1]: 22.3 pg
- MCHC [1]: 34.5%
- MCV [1]: 64.7 fL
- Mono [1]: 2.8%
- PT [1]: 15.5 s
- Plat [1]: 111.7 x10_4/uL
- RBC [1]: 593 x10_4/ul
- Ret [1]: 6.7%
- WBC [1]: 110.2 x10_2/uL
- KIDNEY_L [1]: 0.9 g
- KIDNEY_R [1]: 1 g
- KIDNEY_TOTAL [1]: 1.9 g
- ALP [1]: 1697.6 IU/L
- ALT [1]: 44.8 IU/L
- AST [1]: 76.6 IU/L
- BUN [1]: 17.2 mg/dL
- CRE [1]: 0.2 mg/dL
- Ca [1]: 11 mg/dL
- DBIL [1]: 0 mg/dL
- GLC [1]: 200 mg/dL
- IP [1]: 7.7 mg/dL
- K [1]: 4.1 meq/L
- LDH [1]: 208 IU/L
- Na [1]: 141.4 meq/L
- PL [1]: 143.6 mg/dL
- RALB [1]: 3 g/dL
- TBIL [1]: 0.006 mg/dL
- TC [1]: 77 mg/dL
- TG [1]: 84 mg/dL
- TP [1]: 5.5 g/dL
- gamma-GTP [1]: 1.2 IU/L
- TERMINAL_BW [2]: 270 g
- TERMINAL_BW [3]: 304.6 g
- TERMINAL_BW [4]: 398.5 g
- APTT [2]: 21.5 s
- Bas [2]: 0%
- Eos [2]: 0.8%
- Fbg [2]: 292.8 mg/dL
- Hb [2]: 13.1 g/dL
- Ht [2]: 37.3%
- Lym [2]: 80%
- MCH [2]: 21.6 pg
- MCHC [2]: 35%
- MCV [2]: 61.7 fL
- Mono [2]: 2.4%
- PT [2]: 16.1 s
- Plat [2]: 123.8 x10_4/uL
- RBC [2]: 604.6 x10_4/ul
- Ret [2]: 6.7%
- WBC [2]: 126 x10_2/uL
- Bas [3]: 0%
- Eos [3]: 0.6%
- Fbg [3]: 355.2 mg/dL
- Ht [3]: 41.1%
- Lym [3]: 83.8%
- MCHC [3]: 34.7%
- MCV [3]: 59.9 fL
- Mono [3]: 2%
- PT [3]: 16 s
- Plat [3]: 115.8 x10_4/uL
- RBC [3]: 686.2 x10_4/ul
- Ret [3]: 4.9%
- WBC [3]: 104.5 x10_2/uL
- APTT [4]: 21.9 s
- Bas [4]: 0%
- Eos [4]: 1.2%
- Fbg [4]: 340.2 mg/dL
- Hb [4]: 14.8 g/dL
- Ht [4]: 43%
- Lym [4]: 84.4%
- MCH [4]: 19.2 pg
- MCHC [4]: 34.4%
- MCV [4]: 55.9 fL
- Mono [4]: 2.2%
- PT [4]: 16.9 s
- RBC [4]: 768.2 x10_4/ul
- Ret [4]: 2.7%
- KIDNEY_L [2]: 1.1 g
- KIDNEY_R [2]: 1.2 g
- KIDNEY_TOTAL [2]: 2.3 g
- KIDNEY_L [3]: 1.2 g
- KIDNEY_R [3]: 1.2 g
- KIDNEY_TOTAL [3]: 2.4 g
- KIDNEY_L [4]: 1.3 g
- KIDNEY_R [4]: 1.4 g
- KIDNEY_TOTAL [4]: 2.7 g
- ALP [2]: 1943 IU/L
- ALT [2]: 46.8 IU/L
- AST [2]: 76.6 IU/L
- BUN [2]: 18.6 mg/dL
- CRE [2]: 0.2 mg/dL
- DBIL [2]: 0 mg/dL
- GLC [2]: 179.2 mg/dL
- IP [2]: 7.6 mg/dL
- K [2]: 4.2 meq/L
- LDH [2]: 170.2 IU/L
- Na [2]: 138.6 meq/L
- PL [2]: 136.2 mg/dL
- RALB [2]: 3.1 g/dL
- TBIL [2]: 0.004 mg/dL
- TC [2]: 71.2 mg/dL
- TG [2]: 100.8 mg/dL
- TP [2]: 5.5 g/dL
- gamma-GTP [2]: 2.6 IU/L
- ALP [3]: 1425.2 IU/L
- ALT [3]: 37.4 IU/L
- AST [3]: 65.8 IU/L
- BUN [3]: 19.2 mg/dL
- CRE [3]: 0.2 mg/dL
- DBIL [3]: 0 mg/dL
- GLC [3]: 200.4 mg/dL
- IP [3]: 7.7 mg/dL
- K [3]: 4.1 meq/L
- LDH [3]: 118.4 IU/L
- Na [3]: 140.6 meq/L
- PL [3]: 149 mg/dL
- RALB [3]: 3 g/dL
- TBIL [3]: 0.012 mg/dL
- TC [3]: 73.4 mg/dL
- TP [3]: 5.8 g/dL
- gamma-GTP [3]: 2.2 IU/L
- ALP [4]: 1191 IU/L
- ALT [4]: 35.2 IU/L
- AST [4]: 66.2 IU/L
- CRE [4]: 0.2 mg/dL
- DBIL [4]: 0 mg/dL
- GLC [4]: 196 mg/dL
- IP [4]: 6.3 mg/dL
- K [4]: 4.1 meq/L
- LDH [4]: 170.6 IU/L
- Na [4]: 140.8 meq/L
- PL [4]: 144.6 mg/dL
- RALB [4]: 3.2 g/dL
- TBIL [4]: 0.002 mg/dL
- TC [4]: 66.6 mg/dL
- TG [4]: 143.8 mg/dL
- TP [4]: 6.1 g/dL
- gamma-GTP [4]: 3 IU/L
- TERMINAL_BW [5]: 230.1 g
- APTT [5]: 21.4 s
- Bas [5]: 0%
- Eos [5]: 0.6%
- Fbg [5]: 301 mg/dL
- Hb [5]: 13.6 g/dL
- Ht [5]: 39.5%
- Lym [5]: 75.8%
- MCH [5]: 22 pg
- MCHC [5]: 34.3%
- MCV [5]: 64 fL
- Mono [5]: 3%
- PT [5]: 15.5 s
- Plat [5]: 120.5 x10_4/uL
- RBC [5]: 617.6 x10_4/ul
- Ret [5]: 6.7%
- WBC [5]: 117.5 x10_2/uL
- KIDNEY_L [5]: 1 g
- KIDNEY_R [5]: 1 g
- KIDNEY_TOTAL [5]: 2 g
- ALP [5]: 1847.8 IU/L
- ALT [5]: 42.8 IU/L
- AST [5]: 75 IU/L
- BUN [5]: 17.8 mg/dL
- CRE [5]: 0.2 mg/dL
- Ca [5]: 11 mg/dL
- DBIL [5]: 0 mg/dL
- GLC [5]: 182.8 mg/dL
- IP [5]: 7.4 mg/dL
- K [5]: 4.4 meq/L
- LDH [5]: 222 IU/L
- Na [5]: 141.4 meq/L
- PL [5]: 152.6 mg/dL
- RALB [5]: 3.1 g/dL
- TBIL [5]: 0.004 mg/dL
- TC [5]: 81.4 mg/dL
- TG [5]: 113.6 mg/dL
- TP [5]: 5.6 g/dL
- gamma-GTP [5]: 1.2 IU/L
- TERMINAL_BW [6]: 245.9 g
- TERMINAL_BW [7]: 307.6 g
- TERMINAL_BW [8]: 358.8 g
- Bas [6]: 0%
- Eos [6]: 1%
- Fbg [6]: 311 mg/dL
- Hb [6]: 13.6 g/dL
- Ht [6]: 39.4%
- Lym [6]: 75.6%
- MCH [6]: 21.4 pg
- MCHC [6]: 34.6%
- MCV [6]: 61.9 fL
- Mono [6]: 2.8%
- PT [6]: 15.9 s
- Plat [6]: 121 x10_4/uL
- RBC [6]: 638 x10_4/ul
- Ret [6]: 5.8%
- APTT [7]: 24 s
- Bas [7]: 0%
- Eos [7]: 0.8%
- Fbg [7]: 339.6 mg/dL
- Ht [7]: 41%
- Lym [7]: 80.4%
- MCHC [7]: 34.6%
- MCV [7]: 60.2 fL
- Mono [7]: 2.2%
- PT [7]: 15.8 s
- Plat [7]: 116.9 x10_4/uL
- RBC [7]: 682.4 x10_4/ul
- Ret [7]: 4.7%
- WBC [7]: 120.7 x10_2/uL
- Bas [8]: 0%
- Eos [8]: 1.2%
- Fbg [8]: 317.5 mg/dL
- Hb [8]: 14.8 g/dL
- Ht [8]: 43%
- Lym [8]: 78.5%
- MCH [8]: 19.2 pg
- MCHC [8]: 34.5%
- MCV [8]: 55.8 fL
- Mono [8]: 2.5%
- Plat [8]: 98.8 x10_4/uL
- RBC [8]: 771 x10_4/ul
- Ret [8]: 2.8%
- WBC [8]: 94.9 x10_2/uL
- KIDNEY_L [6]: 1.1 g
- KIDNEY_R [6]: 1.1 g
- KIDNEY_TOTAL [6]: 2.1 g
- KIDNEY_L [7]: 1.2 g
- KIDNEY_R [7]: 1.2 g
- KIDNEY_TOTAL [7]: 2.4 g
- KIDNEY_L [8]: 1.3 g
- KIDNEY_R [8]: 1.3 g
- KIDNEY_TOTAL [8]: 2.5 g
- ALP [6]: 1657.2 IU/L
- ALT [6]: 43.6 IU/L
- AST [6]: 73 IU/L
- BUN [6]: 18 mg/dL
- CRE [6]: 0.2 mg/dL
- DBIL [6]: 0 mg/dL
- GLC [6]: 183.4 mg/dL
- IP [6]: 6.8 mg/dL
- K [6]: 4.1 meq/L
- LDH [6]: 167.2 IU/L
- Na [6]: 139.8 meq/L
- PL [6]: 150.8 mg/dL
- RALB [6]: 3 g/dL
- TBIL [6]: 0.004 mg/dL
- TC [6]: 71.6 mg/dL
- TG [6]: 128.2 mg/dL
- TP [6]: 5.6 g/dL
- gamma-GTP [6]: 2.2 IU/L
- ALP [7]: 1385.4 IU/L
- ALT [7]: 45 IU/L
- AST [7]: 73.4 IU/L
- CRE [7]: 0.2 mg/dL
- DBIL [7]: 0 mg/dL
- GLC [7]: 197.2 mg/dL
- IP [7]: 7.2 mg/dL
- K [7]: 3.9 meq/L
- LDH [7]: 129.4 IU/L
- Na [7]: 141.8 meq/L
- PL [7]: 150 mg/dL
- RALB [7]: 3.1 g/dL
- TBIL [7]: 0.006 mg/dL
- TC [7]: 75.4 mg/dL
- TG [7]: 122.6 mg/dL
- TP [7]: 5.7 g/dL
- gamma-GTP [7]: 2.4 IU/L
- ALP [8]: 1303 IU/L
- ALT [8]: 38.8 IU/L
- AST [8]: 67.5 IU/L
- CRE [8]: 0.2 mg/dL
- DBIL [8]: 0 mg/dL
- GLC [8]: 196 mg/dL
- IP [8]: 5.6 mg/dL
- K [8]: 3.7 meq/L
- LDH [8]: 181.8 IU/L
- Na [8]: 142.5 meq/L
- PL [8]: 149.8 mg/dL
- RALB [8]: 3.3 g/dL
- TBIL [8]: 0.005 mg/dL
- TC [8]: 72.5 mg/dL
- TG [8]: 129.5 mg/dL
- TP [8]: 6.1 g/dL
- gamma-GTP [8]: 2.8 IU/L
- TERMINAL_BW [9]: 227 g
- APTT [9]: 20.5 s
- Bas [9]: 0%
